According to patent US6716880B2, “Compounds for the treatment of estrogen-dependent illnesses and methods for making and using the same” (Duquesne University of the Holy Ghost, priority 1998, dated 2004):

Assays:
estrone sulfatase = target: T1, estrone sulfatase (Rattus norvegicus, UniProt P15589); test: Rat liver microsome sulfatase assay (Lineweaver-Burk); assay type: biochemical; conditions: rat liver microsomes
T1 construct: using rat liver microcosm as a source of sulfatase; from tissue; host or cells: rat liver microsomal fraction (juvenile female Sprague-Dawley rats)
T1 sequence (P15589 20-577): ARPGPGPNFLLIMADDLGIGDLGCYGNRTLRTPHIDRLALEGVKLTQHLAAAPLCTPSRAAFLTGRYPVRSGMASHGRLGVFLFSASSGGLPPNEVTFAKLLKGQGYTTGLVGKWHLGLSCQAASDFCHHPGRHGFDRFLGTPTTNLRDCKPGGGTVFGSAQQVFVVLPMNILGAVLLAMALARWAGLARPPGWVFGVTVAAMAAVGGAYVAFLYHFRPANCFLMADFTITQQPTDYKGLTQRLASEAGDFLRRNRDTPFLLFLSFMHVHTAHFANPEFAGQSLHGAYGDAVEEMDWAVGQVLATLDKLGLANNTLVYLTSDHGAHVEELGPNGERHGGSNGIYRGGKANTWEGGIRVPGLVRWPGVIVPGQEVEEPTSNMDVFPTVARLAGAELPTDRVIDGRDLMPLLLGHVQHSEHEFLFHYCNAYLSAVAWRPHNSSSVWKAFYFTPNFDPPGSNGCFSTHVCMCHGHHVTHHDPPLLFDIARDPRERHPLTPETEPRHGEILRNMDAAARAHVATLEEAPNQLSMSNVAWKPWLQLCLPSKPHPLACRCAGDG
Method: Livers, obtained from juvenile female Sprague-Dawley rats, were minced with scissors in ice-cold 0.25M Tris-sucrose buffer (1:2 w:v) and homogenized with a Tissue Tearor using three 30 sec bursts. The nuclear fraction was pelleted by centrifugation at 1500×g for 15 min at 4° C. The supernatant was decanted and centrifuged at 10,000×g for 30 min at 4° C. to pellet the mitochondrial fraction. The resulting supernatant was removed and centrifuged at 100,000×g to yield the microsomal fraction. The microsomal pellet was resuspended in 50 mM Tris-HCl buffer (1:5 w:v) and protein from the microsomal suspension was determined by using the BCA assay.
^3H-estrone sulfate (53 Ci/mmol) was diluted in 50 mM Tris-HCl buffer and 50 μl (140,000 dpm) of the solution were added to all assay tubes. Radioinert estrone sulfate was dissolved in ethanol and then diluted into 50 mM Tris-HCl buffer. To achieve final concentrations of estrone sulfate, 100 μl of desired concentrations were added to the assay tubes. Compounds prepared according to Example 1 were dissolved in ethanol and then diluted in 50 mM Tris-HCl buffer. […] Product formation for samples containing an inhibitor was compared to that of the control samples, and data for Km and Ki were assessed through Michaelis Menten and Lineweaver-Burk calculations.

[1] = target: T2, estrone sulfatase in MDA-MB-231 breast cancer cells (Homo sapiens, UniProt P08842); test: Intact breast cancer cell estrone sulfatase assay; assay type: cell-based; conditions: intact MDA-MB-231 cells, 18 h incubation
T2 construct: using intact monolayers of MDA-MB-231 breast cancer cells; endogenous in cells; host or cells: MDA-MB-231 breast cancer cells
T2 sequence (P08842 22-583): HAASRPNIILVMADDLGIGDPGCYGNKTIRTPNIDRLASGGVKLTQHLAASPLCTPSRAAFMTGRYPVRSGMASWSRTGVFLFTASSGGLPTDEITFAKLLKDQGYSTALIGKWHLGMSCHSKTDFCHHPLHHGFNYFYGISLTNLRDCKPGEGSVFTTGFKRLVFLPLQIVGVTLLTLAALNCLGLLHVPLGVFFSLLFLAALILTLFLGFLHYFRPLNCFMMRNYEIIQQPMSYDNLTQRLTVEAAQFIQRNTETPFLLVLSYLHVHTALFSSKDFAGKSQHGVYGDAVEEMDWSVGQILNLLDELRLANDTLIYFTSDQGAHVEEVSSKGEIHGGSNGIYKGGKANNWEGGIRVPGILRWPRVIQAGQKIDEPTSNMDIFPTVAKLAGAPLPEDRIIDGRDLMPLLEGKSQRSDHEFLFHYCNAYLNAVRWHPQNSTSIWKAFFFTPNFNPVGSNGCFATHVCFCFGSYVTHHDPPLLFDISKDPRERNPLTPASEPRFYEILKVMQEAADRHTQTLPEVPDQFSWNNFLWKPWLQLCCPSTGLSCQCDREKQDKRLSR
Method: The ability of the compound prepared according to Example 1 to block hydrolysis of estrone sulfate was examined using intact monolayers of MDA-MB-231 breast cancer cells.
MDA-MB-231 cells were plated into 6-well dishes at approximately 1×10^6 cells/well in growth medium and incubated at 37° C. overnight to facilitate adherence to the plates. The growth medium contained 0.2% (v/v) sodium bicarbonate, 5% heat-inactivated fetal-calf serum, […] gentamicin, and 1% (v/v) antibiotic/antimycotic. Following incubation, growth medium was removed and replaced with growth medium containing ^3H-estrone sulfate (100,000 dpm/ml), with or without the compound of Example 1 (10 μM). Cells were incubated for 18 h, then plates were cooled for 15 min. Medium from each well (500 μL) was aliquoted into 16×100 mm tubes. Three mls of toluene were added to each tube for extraction of unconjugated steroids. The tubes were vortexed for 1 min and then centrifuged at 2500×g for 5 min to separate the aqueous and organic phases. One mL of the organic phase (containing radiolabeled unconjugated steroids) was transferred to scintillation vials and 5 ml scintillation cocktail was added. Total radioactivity was counted using a Packard Tri-carb scintillation counter at 50% efficiency for ^3H. All extractions were performed in duplicate and all treatments were run in triplicate. […]

Ki (estrone sulfatase; double reciprocal plot, fixed inhibitor concentration 10 μM): ~17 µM
type of inhibition (estrone sulfatase; maximum velocity unchanged, Km increased): competitive inhibitor
inhibition at 10 µM [1]: ~50%
SMILES: CC/C(=C(/c1ccc(OCCN(C)C)cc1)c1ccc(OS(N)(=O)=O)cc1)c1ccccc1 [tamoxifen sulfamate, (Z)-4-Hydroxytamoxifen Sulfamate]
